Experimental data: US12673946B2, “Pyrimidin-4(3H)-one derivatives as TRPV4 antagonists” (RaQualia Pharma Inc., priority 2020, dated 2026)

Molecular target: T1, human TRPV4 (Homo sapiens, UniProt Q9HBA0)
T1 construct: host or cells: tetracycline-inducible Flp-In T-REx 293 cells
Assay: Hypotonicity-induced Ca2+ influx (Fluo-4, FDSS)
Type: cell-based
Outline: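 Flp-In T-REx 293 cells with tetracycline-induced human TRPV4, loaded with Fluo-4 for 60 min at 25 °C. Compound added 5 min before hypotonic mannitol/CaCl2 solution. Ca2+ signal recorded for 4.5 min on FDSS.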

[1] = Flp-In T-REx 293 cells expressing human TRPV4, examples listed under heading 'Human IC50<50 nM'
[2] = Flp-In T-REx 293 cells stably expressing human TRPV4, compounds listed by potency bin (<10 nM Tables 96-1/96-2, <3 nM Table 97)

T1 sequence (Q9HBA0 whole entry): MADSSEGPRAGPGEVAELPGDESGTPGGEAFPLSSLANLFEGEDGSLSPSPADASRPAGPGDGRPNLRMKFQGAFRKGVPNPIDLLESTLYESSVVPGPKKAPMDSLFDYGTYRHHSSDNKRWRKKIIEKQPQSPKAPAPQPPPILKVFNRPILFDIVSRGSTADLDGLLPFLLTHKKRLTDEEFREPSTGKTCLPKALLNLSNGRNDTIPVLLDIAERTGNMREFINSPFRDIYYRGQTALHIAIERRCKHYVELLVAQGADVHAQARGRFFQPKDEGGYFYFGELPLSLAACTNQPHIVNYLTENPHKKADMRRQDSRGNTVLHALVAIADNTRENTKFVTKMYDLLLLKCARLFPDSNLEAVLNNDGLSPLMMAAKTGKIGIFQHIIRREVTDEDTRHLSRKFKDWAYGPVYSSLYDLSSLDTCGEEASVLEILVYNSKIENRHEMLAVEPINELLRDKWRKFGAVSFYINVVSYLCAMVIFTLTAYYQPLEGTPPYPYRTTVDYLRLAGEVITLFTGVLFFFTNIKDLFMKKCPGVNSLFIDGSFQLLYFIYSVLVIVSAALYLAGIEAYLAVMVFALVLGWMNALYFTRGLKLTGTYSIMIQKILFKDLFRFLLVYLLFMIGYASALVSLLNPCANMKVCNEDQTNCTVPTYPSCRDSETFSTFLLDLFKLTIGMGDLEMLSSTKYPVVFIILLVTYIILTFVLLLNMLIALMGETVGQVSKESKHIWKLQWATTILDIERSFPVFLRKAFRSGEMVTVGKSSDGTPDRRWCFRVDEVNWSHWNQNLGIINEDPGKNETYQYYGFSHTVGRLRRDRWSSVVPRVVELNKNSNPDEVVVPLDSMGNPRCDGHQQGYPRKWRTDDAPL

Structure (SMILES)	IC50 [1] [µM]	IC50 [2] [µM]
O=C(Cc1cccc(C(F)(F)F)c1F)N1CCCc2nc(C3(c4cccc(Cl)c4)CC3)[nH]c(=O)c2C1 [17-111]	< 0.05	< 0.01
O=C(C(O)c1cncc(-c2cccc(Cl)c2)c1)N1CCc2nc(C3(c4ccccc4)CC3)[nH]c(=O)c2C1 (stereo not shown) [48-5]	< 0.05	< 0.01
O=C([C@H](O)c1cccc(C(F)(F)F)c1)N1CCCc2nc(C3(c4cc(CCC5COC5)cs4)CC3)[nH]c(=O)c2C1 [30-11]	< 0.05	< 0.01
O=C(C(O)c1cccc(-c2ccc(OC(F)(F)F)cc2)c1)N1CCc2nc(C3(c4ccccc4)CC3)[nH]c(=O)c2C1 (stereo not shown) [44-24]	< 0.05	
O=C([C@H](O)c1cccc(Cl)c1)N1CCCc2nc(C3(c4cccc(Br)c4)CC3)[nH]c(=O)c2C1 [17-87]	< 0.05	< 0.01
O=C([C@H](O)c1cccc(C(F)(F)F)c1)N1CCCc2nc(C3(c4cccc(-c5ccc(N6CCCC6)nc5)c4)CC3)[nH]c(=O)c2C1 [42-51]	< 0.05	< 0.01
O=C(N1CCCc2nc(C3(c4ccccc4)CC3)[nH]c(=O)c2C1)C(F)(F)c1cccc(Cl)c1 [20-7]	< 0.05	< 0.01
O=C(Cc1ccccc1Oc1ccccc1)N1CCCc2nc(C3(c4ccccc4)CC3)[nH]c(=O)c2C1 [17-143]	< 0.05	
CC(C)c1cccc(-c2cccc(CC(=O)N3CCCc4nc(C5(c6cccc(Cl)c6)CC5)[nH]c(=O)c4C3)c2)c1 [57-5]	< 0.05	< 0.01
O=C([C@H](O)c1cccc(C(F)(F)F)c1)N1CCc2nc(C3(c4cc(-c5ccccc5)cs4)CC3)[nH]c(=O)c2C1 [36-1]	< 0.05	< 0.01
O=C([C@H](O)c1cccc(Cl)c1)N1CCc2nc(C3(c4cncc(C5CCCC5)c4)CC3)[nH]c(=O)c2C1 [25-1]	< 0.05	< 0.003
O=C([C@H](O)c1cccc(C(F)(F)F)c1)N1CCCc2nc(C3(c4cc(C5CCC(F)(F)CC5)cs4)CC3)[nH]c(=O)c2C1 [30-3]	< 0.05	< 0.003
O=C(C(O)c1cccc(-c2cccc(C(F)(F)F)c2)c1)N1CCCc2nc(C3(c4ccccc4)CC3)[nH]c(=O)c2C1 (stereo not shown) [49-8]	< 0.05	< 0.01
CC(C)c1cccc(C2(c3nc4c(c(=O)[nH]3)CN(C(=O)C(O)c3cccc(-c5cccc(OC(F)(F)F)c5)c3)CCC4)CC2)c1 (stereo not shown) [17-49]	< 0.05	
O=C([C@H](O)c1cccc(-c2cc(C(F)(F)F)ccc2Cl)c1)N1CCCc2nc(C3(c4ccccc4)CC3)[nH]c(=O)c2C1 [49-52]	< 0.05	< 0.003
CN1CCN(Cc2ccc(-c3cccc(C4(c5nc6c(c(=O)[nH]5)CN(C(=O)[C@H](O)c5cccc(C(F)(F)F)c5)CCC6)CC4)c3)cc2)CC1 [42-37]	< 0.05	
O=C([C@H](O)c1cccc(-c2csc3ccccc23)c1)N1CCCc2nc(C3(c4cccc(Cl)c4)CC3)[nH]c(=O)c2C1 [50-1]	< 0.05	< 0.01
O=C([C@H](O)c1cccc(-c2ccc(Cl)c(C(F)(F)F)c2)c1)N1CCc2nc(C3(c4cccc(Cl)c4)CC3)[nH]c(=O)c2C1 [45-3]	< 0.05	< 0.01
CC(C)(C)c1ccc(-c2cccc(C3(c4nc5c(c(=O)[nH]4)CN(C(=O)[C@H](O)c4cccc(Cl)c4)CCC5)CC3)c2)cc1 [40-5]	< 0.05	< 0.01
CC(C)c1cccc(C2(c3nc4c(c(=O)[nH]3)CN(C(=O)[C@H](O)c3cccc(-c5cccc(C(C)(C)C)c5)c3)CCC4)CC2)c1 [51-5]	< 0.05	< 0.01
CC(C)c1cccc(-c2cccc([C@@H](O)C(=O)N3CCc4nc(C5(c6ccccc6)CC5)[nH]c(=O)c4C3)c2)c1 [44-115]	< 0.05	< 0.01
O=C([C@H](O)c1cccc(F)c1F)N1CCCc2nc(C3(c4cccs4)CC3)[nH]c(=O)c2C1 [18-11]	< 0.05	
O=C([C@H](O)c1cccc(C(F)(F)F)c1)N1CCCc2nc(C3(c4cncc(C(F)(F)F)c4)CC3)[nH]c(=O)c2C1 [19-13]	< 0.05	< 0.01
O=C([C@H](O)c1cccc(-c2ccc(F)c(Cl)c2)c1)N1CCc2nc(C3(c4cccc(Cl)c4)CC3)[nH]c(=O)c2C1 [45-1]	< 0.05	< 0.003
O=C(C(O)c1cc(Cl)cc(Cl)c1)N1CCc2nc(C3(c4ccccc4)CC3)[nH]c(=O)c2C1 (stereo not shown) [3-62]	< 0.05	
O=C([C@H](O)c1cccc(Cl)c1)N1CCCc2nc(C3(c4cccc(C5=CCCCC5)c4)CC3)[nH]c(=O)c2C1 [40-20]	< 0.05	< 0.003

More lines, now with the values ahead:

IC50 [1] [µM]	IC50 [2] [µM]	Structure (SMILES)
< 0.05	< 0.01	O=C([C@H](O)c1cccc(-c2cccc(F)c2)c1)N1CCCc2nc(C3(c4cccc(C5CCCCC5)c4)CC3)[nH]c(=O)c2C1 [52-1]
< 0.05	< 0.01	O=C(Cc1cccc(-c2cccc(Cl)c2)c1)N1CCCc2nc(C3(c4cncc(-c5ccccc5)c4)CC3)[nH]c(=O)c2C1 [19-15]
< 0.05	< 0.01	O=C([C@H](O)c1cccc(-c2cc(F)cc(Cl)c2)c1)N1CCCc2nc(C3(c4cccc(-c5csc6ccccc56)c4)CC3)[nH]c(=O)c2C1 [52-14]
< 0.05	< 0.01	Cc1ccc(-c2cccc([C@@H](O)C(=O)N3CCCc4nc(C5(c6ccccc6)CC5)[nH]c(=O)c4C3)c2)cc1C [49-48]
< 0.05	< 0.01	CC(C)c1cccc(C2(c3nc4c(c(=O)[nH]3)CN(C(=O)[C@H](O)c3cccc(-c5cccc(C(F)(F)F)c5)c3)CCC4)CC2)c1 [51-2]
< 0.05	< 0.01	CC(C)c1cccc(C2(c3nc4c(c(=O)[nH]3)CN(C(=O)[C@H](O)c3cccc(-c5cccc(OC(F)(F)F)c5)c3)CCC4)CC2)c1 [51-3]
< 0.05		CC(=O)N1CCC(c2csc(C3(c4nc5c(c(=O)[nH]4)CN(C(=O)[C@H](O)c4cccc(C(F)(F)F)c4)CCC5)CC3)c2)CC1 [30-13]
< 0.05		O=C(C(O)c1cccc(C2CC2)c1)N1CCCc2nc(C3(c4cccc(F)c4)CC3)[nH]c(=O)c2C1 (stereo not shown) [17-53]
< 0.05	< 0.01	CC(C)(C)c1cccc(-c2cccc([C@@H](O)C(=O)N3CCCc4nc(C5(c6cccs6)CC5)[nH]c(=O)c4C3)c2)c1 [53-4]
< 0.05	< 0.01	O=C(C(O)c1cccc(Oc2ccccc2)c1)N1CCCc2nc(C3(c4cccc(Cl)c4)CC3)[nH]c(=O)c2C1 (stereo not shown) [17-33]
< 0.05	< 0.003	O=C([C@H](O)c1cccc(C(F)(F)F)c1)N1CCCc2nc(C3(c4cccc(OC(F)(F)F)c4)CC3)[nH]c(=O)c2C1 [17-6]
< 0.05	< 0.01	O=C([C@H](O)c1cccc(C(F)(F)F)c1)N1CCCc2nc(C3(c4cccc(-c5ccc6ccccc6c5)c4)CC3)[nH]c(=O)c2C1 [42-47]
< 0.05	< 0.01	O=C([C@H](O)c1cccc(-c2cccc(C(F)(F)F)c2)c1)N1CCc2nc(C3(c4cccc(Cl)c4)CC3)[nH]c(=O)c2C1 [45-4]
< 0.05	< 0.003	CC(C)c1cncc(C2(c3nc4c(c(=O)[nH]3)CN(C(=O)[C@H](O)c3cccc(-c5cccc(F)c5)c3)CCC4)CC2)c1 [55-7]
< 0.05	< 0.003	O=C([C@H](O)c1cccc(C(F)(F)F)c1)N1CCc2nc(C3(c4cccc(-c5ccccc5)c4)CC3)[nH]c(=O)c2C1 [37-1]
< 0.05	< 0.01	O=C(C(O)c1cccc(-c2cc(C(F)(F)F)cc(C(F)(F)F)c2)c1)N1CCc2nc(C3(c4ccccc4)CC3)[nH]c(=O)c2C1 (stereo not shown) [44-8]
